The test system of one test is TNF-α and IFN-γ. The experiment in a line: cytokine concentrations in supernatant of LPS-stimulated macrophage (PEC) culture after oral administration to mice. The settings on record: 1 g/kg oral for 1 week, C57/BL6 mice; PEC macrophages + LPS 100 ng/ml, 4 hours. It is filed as in vivo, mouse. The procedure:
(§1) The physiological activity assays were performed by forcibly administering 1 g/kg of a sample to 6-week age male C57/BL6 mice for 1 week by oral route. Spleen cells and peritoneal exudate cells (PEC) were collected after sacrificing the animals. They were cultivated and assayed TNF-α, IFN-γ, and IL-2.
PEC (peritoneal exudate cells) collected from mouse abdominal cavity with physiological saline were centrifuged, (1,000 rpm, 10 minutes) to collect cells, which were used as macrophages. To the macrophages LPS (lipopoly saccharide) was added at a final concentration of 100 ng/ml and the cells were cultivated. After 4 hours, TNF-α, IFN-γ, and IL-2 in the culture supernatant were assayed.
(§2) For both a) and b) above, a kit for assaying cytokine (Wako Pure Chemical Industries, Ltd.) was used.

Another test concerns TNF-α, IFN-γ and IL-2. Description: cytokine concentrations in supernatant of ConA-stimulated spleen cell culture after oral administration to mice. It is filed as in vivo, mouse. The settings on record: 1 g/kg oral for 1 week, C57/BL6 mice, IL-2 in culture supernatant (FIGS. 1 to 3). The method, then: as §1
The collected mouse spleen was homogenized in DMEM medium and the homogenate was centrifuged at 4° C. (1,000 rpm, 5 minutes) To this was added ASK lysis buffer and the mixture was incubated (37° C., 3 minutes) in order to remove erythrocytes, followed by centrifugation (1,000 rpm, 5 minutes). To the spleen cells thus collected was added ConA at a final concentration of 10 μg/ml and cultivated in a microplate. After 15 hours, the culture supernatant was collected for assaying TNF-α, IFN-γ, and IL-2.
as §2

The source of these data is US7169762B2, “Substance having physiological property, method for producing the same and uses thereof” (Amino Up Chemical Co., Ltd., priority 2001, dated 2007).

With `CC(=O)c1occc1OC1OC(CO)C(O)C(O)C1O` [substance A, 2-acetyl-3-hydroxyfuran 3-O-α-D-glucopyranoside], the “cytokine induction ability, macrophage” value in the test on TNF-α and IFN-γ is “high cytokine induction ability”. For the same compound, in the test with TNF-α, IFN-γ and IL-2, the cytokine induction ability entry was “considerable cytokine induction ability”.
